Source: patent US5036046A, “Method for enhancing healing of corneal endothelial wounds” (Eye Research Institute of Retina Foundation, Inc., priority 1988, dated 1991)
“Also recorded” adds a separate entry of the source. Read-outs that look alike come from different tables or passages of the source.

Assays:
[1] = test system: cultured rabbit corneal endothelium; experiment: Pharmacological regulation of morphology and mitosis in cultured rabbit corneal endothelium; type: cell-based
[2] = test system: rabbit corneal endothelial cells; experiment: Cell shape morphometry of cultured rabbit corneal endothelial cells (Example 1); details: for potentiation of EGF-induced elongation: 10^-5 M (equimolar), in presence of EGF; for rank order of potency on corneal endothelial cell shape: cyclooxygenase inhibitors, with EGF; for cell shape at confluence: cells cultured seven days in the presence of the agent; for distribution of major axes (Amax): versus control
[3] = test system: Corneal endothelial cells; experiment: f-actin labelling with rhodamine labelled phallacidin in cultured corneal endothelial cells; details: 1 week in culture
[4] = test system: cultured corneal endothelial cells; details: control cultures and cultures with EGF added
[5] = test system: endothelium of excised corneas; experiment: Shape of the cells near the wound boundary in excised corneas
[6] = test system: endothelium of excised corneas; experiment: Cell migration near the wound boundary in excised corneas; type: cell-based, New Zealand white rabbits; details: EGF 10 ng/ml, indomethacin 1 μM in M-K medium
[7] = test system: endothelium of excised corneas; experiment: Endothelial wound area / closure in excised corneas (specular microscopy)
[8] = test system: Corneal endothelial cells; experiment: Transmission electron microscopy of pharmacologically modulated endothelial phenotypes; details: treated cultures
[9] = test system: most cell culture systems; details: cited from earlier work
cat corneal endothelium = details: 22° C.; cited from earlier work
[10] = agent added to TPA containing medium

C=C[C@@]1(C)CC(=O)[C@]2(O)[C@@]3(C)[C@@H](O)CCC(C)(C)[C@@H]3[C@H](O)[C@H](OC(C)=O)[C@@]2(C)O1 [Forskolin]
effect on EGF and INDO-induced elongation ([1]; agent added with EGF and INDO): prevented | effect on cell density / mitosis in presence of EGF and INDO ([1]; agent added with EGF and INDO): inhibited endothelial mitosis

CCCCCCCCCCCCCC(=O)O[C@@H]1[C@@H](C)[C@@]2(O)[C@@H](C=C(CO)C[C@]3(O)C(=O)C(C)=C[C@@H]23)[C@H]2C(C)(C)[C@]12OC(C)=O [TPA]
cell density / mitosis, agent alone [1]: increased cell density | cell shape / elongation, agent alone [1]: caused elongation

C[C@@H]1C[C@H]2[C@@H]3CCC4=CC(=O)C=C[C@]4(C)[C@@]3(F)[C@@H](O)C[C@]2(C)[C@@]1(O)C(=O)CO [dexamethasone]
potentiation of EGF-induced elongation [2]: has no effect

CC(C(=O)O)c1ccc(-c2ccccc2)c(F)c1 (stereo not shown) [flurbiprofen]
rank order of potency on corneal endothelial cell shape [2]: indomethacin<suprofen<flurbiprofen

COc1ccc2c(c1)c(CC(=O)O)c(C)n2C(=O)c1ccc(Cl)cc1 [indomethacin]
effect on TPA-induced elongation [1, 10]: marked enhancement of cellular elongation | effect on cell density / mitogenic response to TPA [1, 10]: had no effect on final cell density | f-actin staining pattern [3]: diffuse reticular staining throughout the cytoplasm | cell shape at confluence [2]: elongated at confluence with a stellate shape | distribution of major axes (Amax) ([2]; cultured with agent): increases | rank order of potency on corneal endothelial cell shape [2]: indomethacin<suprofen<flurbiprofen | synthesis of pgE2 [4]: totally inhibits

CCCCC[C@H](O)/C=C/[C@@H]1[C@@H](C/C=C\CCCC(=O)O)[C@@H](O)C[C@H]1O [pgF2α]
effect on the elongation of Amax produced by EGF and indomethacin ([2]; increasing concentrations added to cells grown with EGF and indomethacin): has no effect

CC(C(=O)O)c1ccc(C(=O)c2cccs2)cc1 (stereo not shown) [suprofen]
potentiation of EGF-induced elongation [2]: Potentiation of EGF-induced elongation also occurs | rank order of potency on corneal endothelial cell shape [2]: indomethacin<suprofen<flurbiprofen

Cholera toxin
cell shape / elongation, agent alone [1]: had no effect on cell shape | effect on EGF and INDO-induced elongation [1]: antagonized | effect on EGF-induced elongation [1]: EGF-induced elongation did not occur | effect on TPA-induced elongation [1]: did not prevent elongation | effect on cell density / mitogenic response to TPA [1]: potentiate the mitogenic response | effect on cell density / mitosis in presence of EGF and INDO [1]: without preventing increased cell density | effect on the mitogenic effect of EGF [1]: potentiated

Pertussis toxin
cell density / mitosis, agent alone [1]: had no effect on either parameter | cell density in combination with EGF or INDO [1]: without significantly altering cell density | cell shape / elongation, agent alone [1]: had no effect on either parameter | cell shape in combination with EGF or INDO [1]: restored polygonal cell shape

epidermal growth factor [EGF]
relative average percent change of the shape factor, difference from control (FIG. 3) ([5]; EGF+indomethacin at 50, 100, 150 minutes, EGF at 100, 150 minutes, p<0.001): significantly different from the control group | time of the peak of the shape change ([5]; one cornea of each group, control 200 minutes): 150 min | migration of cells near the wound boundary compared with the control group [6]: migrated significantly more; also recorded: significantly increased migration | wound closure time compared with the control group ([7]; EGF 10 ng/ml, indomethacin 1 μM in M-K medium): shortened the wound closure time | time of maximum wound area after wounding ([7]; EGF 10 ng/ml, indomethacin 1 μM in M-K medium, control 20 minutes): 10 min | time for wound area to decrease to 50% of the original size ([7]; EGF 10 ng/ml, indomethacin 1 μM in M-K medium, control about 240 minutes): ≤ 120 min | time for wounds to close to 80% of the original size ([7]; after wounding, EGF treated): ≤ 250 min | cell density ([2]; at confluence, versus control conditions): little or no effect | cell shape at confluence [2]: spindle-shaped at confluence | distribution of major axes (Amax) ([2]; cultured with agent): significantly greater distribution of major axes | ratio Per/Amax ([2]; cultured with agent, perfectly round cell 3.14): decreases significantly | ultrastructure by transmission electron microscopy [8]: Junctional complexes were absent | time at which DNA synthesis reaches a maximum [9]: about 22 hours | time at which increased DNA synthesis begins after addition [9]: approximately 15 hours | time for association to be complete (cat corneal endothelium): approximately 120 minutes | synthesis of pgE2 [4]: unaffected
